From patent publication US9546153B2, “Bicyclic heterocycle substituted pyridyl compounds useful as kinase modulators” (BRISTOL-MYERS SQUIBB COMPANY, priority 2012, dated 2017)
Where two headings read alike, the source gives them in different places.

How the values were obtained:
[1] = tested on: TLR2 induced IL-6 in peripheral blood mononuclear cells (PBMCs); assay: PBMC TLR2 Induced IL-6 Assay; format: cell-based, human; details: human PBMCs, 10 μg/ml lipoteichoic acid for 5 hours, IL-6 by ELISA; for IC50: value without asterisk, read-out: Cell IC50; for EC50: EC50 determinations are indicated with an asterisk, read-out: Cell EC50 (asterisk)
Summary of the method: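 Human PBMCs (250000 cells/well) in RPMI with 10% heat-inactivated FCS pre-treated with compound for 30 min at 37° C, then stimulated 5 h with 10 μg/ml lipoteichoic acid. Supernatant IL-6 measured by ELISA and reported as IC50 or EC50.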

IRAK4 = IRAK4 (Homo sapiens (Human), UniProt Q9NWZ3); assay: IRAK4 Inhibition Assay; format: biochemical; details: ATP 500 μM; IRAK4 0.6 nM; 60 min at room temperature
Sequence of IRAK4 (Q9NWZ3 whole entry, species assumed): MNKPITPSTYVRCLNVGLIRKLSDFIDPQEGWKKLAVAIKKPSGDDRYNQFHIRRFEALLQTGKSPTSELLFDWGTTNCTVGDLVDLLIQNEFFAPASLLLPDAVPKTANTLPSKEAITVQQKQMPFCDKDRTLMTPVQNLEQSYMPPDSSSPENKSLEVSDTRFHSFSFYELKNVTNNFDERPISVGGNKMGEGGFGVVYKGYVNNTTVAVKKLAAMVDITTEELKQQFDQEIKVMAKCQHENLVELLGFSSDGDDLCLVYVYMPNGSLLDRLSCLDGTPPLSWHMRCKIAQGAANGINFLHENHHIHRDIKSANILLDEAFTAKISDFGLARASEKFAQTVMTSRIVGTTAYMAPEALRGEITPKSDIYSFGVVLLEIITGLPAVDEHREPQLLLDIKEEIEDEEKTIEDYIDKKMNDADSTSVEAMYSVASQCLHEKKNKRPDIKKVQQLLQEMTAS
Procedure: The assays were performed in U-bottom 384-well plates. […] The reaction was initiated by the combination of IRAK4 with substrates and test compounds. The reaction was incubated at room temperature for 60 min. and terminated by adding 45 μL of 35 mM EDTA to each sample. The reaction mixture was analyzed on the Caliper LABCHIP® 3000 (Caliper, Hopkinton, Mass.) by electrophoretic separation of the fluorescent substrate and phosphorylated product.

IC50 (IRAK4) | SMILES | IC50 ([1]; Homo sapiens, PBMC, 5 h) | IC50 [1] | EC50 ([1]; Homo sapiens, PBMC, 5 h)
1.5 nM | CC(C)Nc1cc(Nc2ccc3ncc(F)cc3n2)ncc1C(=O)NC[C@@H](F)C(C)(C)O [Example 427] | 42 nM |  | 
12 nM | CNC(=O)[C@H]1CC[C@H](NC(=O)c2cnc(Nc3cnc4[nH]ccc4c3)cc2NC(C)C)CC1 [Example 507] | 523 nM |  | 
6.7 nM | CC(C)(O)[C@H](F)CNC(=O)c1cnc(Nc2ccc3nccnc3c2)cc1NC1CCCC1F (stereo partly drawn) [Example 348] | 562 nM |  | 
17.1 nM | CC(C)(O)[C@H](F)CNC(=O)c1cnc(Nc2ccc3nccnc3c2)cc1NC1CCCC1O (stereo partly drawn) [Example 338] | 493 nM |  | 
1.5 nM | CC(C)(O)[C@H](F)CNC(=O)c1cnc(Nc2nc3scnc3cc2F)cc1NC1CCCOC1 (stereo partly drawn) [Example 473] | 401 nM |  | 
11.3 nM | CC(C)(O)[C@H](F)CNC(=O)c1cnc(Nc2nc3ccnn3cc2F)cc1NC1CCCOC1 (stereo partly drawn) [Example 422] | 753 nM |  | 
5 nM | CC(F)CNc1cc(Nc2ccc3ncsc3c2)ncc1C(=O)NC[C@@H](F)C(C)(C)O (stereo partly drawn) [Example 451] |  | 258 nM | 
2.2 nM | CC(=O)N[C@H]1CC[C@H](NC(=O)c2cnc(Nc3ccc4ncsc4c3)cc2NC(C)C)CC1 [Example 200] | 94 nM |  | 
4.2 nM | CC(C)(O)[C@H](F)CNC(=O)c1cnc(Nc2ccn3nccc3n2)cc1NC1CC(F)C1 (stereo partly drawn) [Example 263] | 190 nM |  | 
4.8 nM | CC(C)(O)[C@H](F)CNC(=O)c1cnc(Nc2ccc3nccn3n2)cc1NC1CCC1 [Example 272] | 175 nM |  | 
10.7 nM | CC(C)(O)[C@H](F)CNC(=O)c1cnc(Nc2ccc3ncsc3c2)cc1Nc1ccc(C(=O)NCC(F)(F)F)cc1 [Example 324] | 190 nM |  | 
9.8 nM | CC(C)(O)[C@H](F)CNC(=O)c1cnc(Nc2ccc3ncsc3c2)cc1NCc1ccc(Cl)cc1 [Example 167] | 526 nM |  | 
2.8 nM | CC(C)(F)CNc1cc(Nc2cc3scnc3cc2F)ncc1C(=O)NC[C@@H](F)C(C)(C)O [Example 454] | 38 nM |  | 
5.3 nM | CC(C)(O)[C@H](F)CNC(=O)c1cnc(Nc2ccc3ncsc3c2)cc1NC1CCCCCC1 [Example 87] | 271 nM |  | 
2.4 nM | CC(C)(O)[C@H](F)CNC(=O)c1cnc(Nc2ccc3ncsc3c2)cc1Nc1ccc(C(N)=O)cc1 [Example 320] | 270 nM |  | 
2.7 nM | CC(C)(O)[C@H](F)CNC(=O)c1cnc(Nc2ccc3ncsc3c2)cc1NC1CC1 [Example 42] | 228 nM |  | 
9.6 nM | CC(C)Nc1cc(Nc2ccc3ncsc3c2)ncc1C(=O)NC12CCC(N)(CC1)C2 [Example 224] | 280 nM |  | 
3.5 nM | CN(C)CC(=O)NC12CCC(Nc3cc(Nc4ccc5ncsc5c4)ncc3C(=O)NC[C@@H](F)C(C)(C)O)(CC1)C2 [Example 398] | 301 nM |  | 
3.4 nM | CC(C)Nc1cc(Nc2ccc3ncsc3c2)ncc1C(=O)NC12CCC(C(=O)NCC(C)(C)O)(CC1)CC2 [Example 226] | 274 nM |  | 

IC50 (IRAK4) | SMILES | IC50 ([1]; Homo sapiens, PBMC, 5 h) | IC50 [1] | EC50 ([1]; Homo sapiens, PBMC, 5 h)
3.2 nM | CC(C)(O)[C@H](F)CNC(=O)c1cnc(Nc2ccn3ncc(F)c3n2)cc1NC1CC1 [Example 251] | 369 nM |  | 
2.2 nM | CC(C)(O)[C@H](F)CNC(=O)c1cnc(Nc2ccc3ncoc3c2)cc1N[C@@H]1CCCC1F (stereo partly drawn) [Example 355] |  | 236 nM | 
3.8 nM | CC(C)(O)[C@H](F)CNC(=O)c1cnc(Nc2cc3scnc3cc2F)cc1NC1CCCOC1 (stereo partly drawn) [Example 518] |  | 1840 nM | 
7.4 nM | CCNC(=O)c1cnc(Nc2ccc3ncsc3c2)cc1N[C@@H](c1ccccc1)[C@H](O)CO [Example 144] | 199 nM |  | 
1.9 nM | CC(C)(O)[C@H](F)CNC(=O)c1cnc(Nc2nc3ccnn3cc2F)cc1NC1CCC(F)C1 (stereo partly drawn) [Example 408] |  | 209 nM | 
5 nM | CC(C)Nc1cc(Nc2ccc3ncsc3c2)ncc1C(=O)NC1CCN(S(C)(=O)=O)CC1 [Example 217] | 560 nM |  | 
8.1 nM | CC(C)(O)[C@H](F)CNC(=O)c1cnc(Nc2nc3ccnn3cc2F)cc1NC1CCOCC1 [Example 369] | 859 nM |  | 
3.9 nM | CC(C)(O)[C@H](F)CNC(=O)c1cnc(Nc2cc3scnc3cn2)cc1NC1CC1 [Example 315] | 426 nM |  | 
2.6 nM | CC(C)Nc1cc(Nc2ccc3ncsc3c2)ncc1C(=O)NCC[C@@H](C)NC(=O)[C@@H]1CC[C@H](F)C1 [Example 198] | 307 nM |  | 
5.9 nM | CC(C)Nc1cc(Nc2ccc3nccnc3c2)ncc1C(=O)NC[C@@H](F)C(C)(C)O [Example 55] | 349 nM |  | 
1.9 nM | CC(C)Nc1cc(Nc2ccn3ncc(F)c3n2)ncc1C(=O)NC[C@@H](F)C(C)(C)O [Example 244] | 156 nM |  | 
10 nM | CC(C)Nc1cc(Nc2cc3ccnn3cc2F)ncc1C(=O)NC[C@@H](F)C(C)(C)O [Example 477] | 717 nM |  | 
10.3 nM | Cc1cn2nccc2nc1Nc1cc(NC2CCOCC2)c(C(=O)NC[C@@H](F)C(C)(C)O)cn1 [Example 482] |  |  | 251 nM
1.5 nM | CC(C)Nc1cc(Nc2ccc3ncsc3c2)ncc1C(=O)NC1CCC2(CC1)NC(=O)NC2=O (stereo not drawn) [Example 525, 6-(benzo[d]thiazol-6-ylamino)-N-(2,4-dioxo-1,3-diazaspiro[4.5]decan-8-yl)-4-(isopropylamino)nicotinamide] |  |  | 131 nM
7 nM | CC(C)(O)[C@H](F)CNC(=O)c1cnc(Nc2ccc3ncsc3c2)cc1N[C@H]1CC[C@H](N)CC1 [Example 61] | 257 nM |  | 
3.4 nM | CC(C)(O)[C@H](F)CNC(=O)c1cnc(Nc2ccc3ncsc3c2)cc1N[C@@H](c1ccccc1)[C@H](O)CO [Example 49] | 444 nM |  | 
3.2 nM | CCCNc1cc(Nc2ccc3ncsc3c2)ncc1C(=O)NC[C@@H](F)C(C)(C)O [Example 159] | 146 nM |  | 
2.6 nM | CC(C)(O)[C@H](F)CNC(=O)c1cnc(Nc2ccc3ncsc3c2)cc1NC1CC2CCC1C2 (stereo partly drawn) [Example 89] | 32 nM |  | 
2.6 nM | CC(C)Nc1cc(Nc2ccc3ncsc3c2)ncc1C(=O)N[C@H]1CC[C@H](NS(C)(=O)=O)CC1 [Example 204] | 252 nM |  | 

IC50 (IRAK4) | SMILES | IC50 ([1]; Homo sapiens, PBMC, 5 h) | IC50 [1] | EC50 ([1]; Homo sapiens, PBMC, 5 h)
20.1 nM | CC(C)(O)[C@H](F)CNC(=O)c1cnc(Nc2ccn3nccc3n2)cc1NCC(F)F [Example 386] | 516 nM |  | 
2 nM | CC(C)(O)[C@H](F)CNC(=O)c1cnc(Nc2nc3scnc3cc2F)cc1NC1CC1 [Example 467] | 428 nM |  | 
4.1 nM | CCNc1cc(Nc2nc3scnc3cc2F)ncc1C(=O)NC[C@@H](F)C(C)(C)O [Example 468] | 246 nM |  | 
8.4 nM | CC(C)Nc1cc(Nc2ccc3cc(C#N)ccc3n2)ncc1C(=O)NC[C@@H](F)C(C)(C)O [Example 480] |  |  | 877 nM
6.8 nM | O=C(NCCN1CCOCC1)c1cnc(Nc2ccc3ncsc3c2)cc1NC1CCCC1 [Example 154] | 535 nM |  | 
8.6 nM | CNC(=O)c1cc(F)c(Nc2cc(Nc3ccc4ncsc4c3)ncc2C(=O)NC[C@@H](F)C(C)(C)O)cc1F [Example 78] | 282 nM |  | 
2.4 nM | CC(C)Nc1cc(Nc2ccc3ncsc3c2)ncc1C(=O)N[C@H]1CC[C@H](NC(=O)c2cccnc2)CC1 [Example 202] | 156 nM |  | 
3.6 nM | CC(C)(O)[C@H](F)CNC(=O)c1cnc(Nc2ccc3ncsc3c2)cc1NC1CCCOC1 (stereo partly drawn) [Example 54] |  | 258 nM | 
11.6 nM | CC(C)(O)[C@H](F)CNC(=O)c1cnc(Nc2ccc3ncccc3n2)cc1NC1CCOCC1F (stereo partly drawn) [Example 438] |  | 168 nM | 
3.8 nM | CN1CCCC1CCNC(=O)c1cnc(Nc2ccc3ncsc3c2)cc1NC1CCCC1 (stereo not drawn) [Example 149] | 386 nM |  | 
4.9 nM | CC(C)(O)[C@H](F)CNC(=O)c1cnc(Nc2nc3ccnn3cc2F)cc1NC1CCOCC1F (stereo partly drawn) [Example 436] | 346 nM |  | 
2 nM | CC(C)(O)[C@H](F)CNC(=O)c1cnc(Nc2ncc3ncccc3n2)cc1NC1CCC(F)C1 (stereo partly drawn) [Example 447] |  | 1250 nM | 
6.6 nM | CCC(C)Nc1cc(Nc2ccn3nccc3n2)ncc1C(=O)NC[C@@H](F)C(C)(C)O (stereo partly drawn) [Example 388] |  | 234 nM | 
7.5 nM | CC(C)(O)[C@H](F)CNC(=O)c1cnc(Nc2ccc3ncsc3c2)cc1NC12CCC(NC(=O)c3ccccn3)(CC1)C2 [Example 400] | 119 nM |  | 
3.3 nM | CC(CO)Nc1cc(Nc2nc3scnc3cc2F)ncc1C(=O)NC[C@@H](F)C(C)(C)O (stereo partly drawn) [Example 460] |  | 553 nM | 
0.5 nM | CC(C)(O)[C@H](F)CNC(=O)c1cnc(Nc2ccc3ncsc3n2)cc1NC1CC1 [Example 308] | 144 nM |  | 
5.1 nM | O=C(NCCC1(O)CCC1)c1cnc(Nc2ccc3ncsc3c2)cc1NC1CC1 [Example 10] | 115 nM |  | 
2.4 nM | CC(C)C(O)[C@H](F)CNC(=O)c1cnc(Nc2ccc3ncsc3c2)cc1N[C@@H]1CCC[C@H]1O (stereo partly drawn) [Example 331] |  | 163 nM | 
3 nM | CC(C)Nc1cc(Nc2ccc3ncsc3c2)ncc1C(=O)NC[C@@H](F)C(O)C(C)C (stereo partly drawn) [Example 13] |  | 107 nM | 
